Experimental data as given in patent publication US20160109450A1, “METHOD FOR MONITORING METASTASIS OF CANCER CELLS USING CELLS CULTURED IN THREE DIMENSIONAL COLLAGEN ENVIRONMENT” (Medicinal Bioconvergence Research Center, priority 2013, published 2016).

Key:
[1] = test system: MDA-MB-231 cell line; details: ERK inhibitor treated cells
[2] = test system: MDA-MB-231 cell line; experiment: ChIP (chromatin immunoprecipitation) on snail1 and cortactin promoters; assay type: cell-based, human; details: ChIP with anti-pS63 c-Jun antibody
Experimental: The cells were then treated with 1.5 M glycine, followed by washing with cold PBS containing protease inhibitor. The fixed cells were loaded in SDS-lysis buffer supplemented with protease/kinase inhibitor, followed by sonication for lysis. The lysed sample proceeded to […] at 13000 rpm for 3 minutes, and the supernatant was transferred into a microcentrifuge tube, followed by sonication again for chromatin fragmentation. Supernatant was obtained by centrifugation, some of which was transferred into input and some of which was reacted with the antibodies of phospho-Ser^63-c-Jun, snail1, and smad 2/3/4 (cell signaling technology, USA) at 4° C. for at least 18 hours. Upon completion of the reaction, the tube was taken out from 4° C., to which sepharose beads coated with protein A and G (1:1), followed by reaction at 4° C. for 4 hours. The tube was then washed with RIPA/150 mM NaCl solution and washed again with RIPA/350 mM NaCl solution. The washed sample was washed again with LiCl washing buffer, which was washed with TE (Tris/EDTA) solution three times. TE solution was added thereto, followed by reaction at 65° C. for 15 hours. On the 3rd day of the reaction, RNase A was added to each input and sample, followed by reaction at 37° C. Proteinase K was added thereto, followed by reaction at 55° C. for 1 hour. […]

| Structure (SMILES) | cell growth [1] | binding of c-Jun to snail1 promoter region [2] |
| --- | --- | --- |
| N#CC(=C(/N)Sc1ccccc1N)/C(C#N)=C(/N)Sc1ccccc1N [ERK inhibitor] | did not grow normally but instead showed dying proneness | – |
| Oc1c2ccccc2c2c3c(cccc13)N=N2 [SP600125] | – | did not bind |
